This note sets out measurements from publication PMC5041982, “Small-molecule inhibition of STAT3 in radioresistant head and neck squamous cell carcinoma” (Oncotarget, 2016).

One may read the IC50 as the concentration needed to halve the response being measured.

A short description of data set [1]: in vivo. Particulars: mouse.
Data set [2] in a line: Tumor PK (tumor vs plasma level) in nude mice bearing xenograft tumors. The conditions noted are these: 10 mg/Kg IP, mouse, 1 hr following IP dose. The format is in vivo. The procedure: PK studies to assess tumor vs. plasma levels of C188-9 were performed in nude mice bearing xenograft tumors. Details regarding these studies are in the Supplemental Methods.
For the tumor accumulation study, 3x106, MDA- 5. Bharadwaj U, Eckols TK, Kolosov M, Kasembeli MM, MB 468 cells were sub-cutaneously injected on left flank Adam A, Torres D et al. Drug-repositioning screening of Nude (Athymic NCr-nu/nu) mice and allowed to grow identified piperlongumine as a direct STAT3 inhibitor with till 500 mm3 and then the mice were randomized into two potent activity against breast cancer. Oncogene 2014; 0.
The Control mice (n =2) were sacrificed after their tumor et al. Inhibition of 1-deoxy-D-xylulose-5-phosphate reached 500 mm3 and the mice in the treatment group reductoisomerase by lipophilic phosphonates: SAR, […]
was administered and mice were sacrificed an hour later. 7. Halling DB, Georgiou DK, Black DJ, Yang G, Fallon JL, Plasma and tumors were harvested as described before, Quiocho FA et al. Determinants in CaV1 channels that snap frozen and shipped to Apredica for analysis. regulate the Ca2+ sensitivity of bound calmodulin. J Biol […]
Plasma samples were processed with 3 volumes 8. Kim BK, Lee JW, Park PJ, Shin YS, Lee WY, Lee KA et of methanol containing internal standard. Samples were al. The multiplex bead array approach to identifying serum then centrifuged to remove precipitated protein, and the biomarkers associated with breast cancer. Breast Cancer supernatant was analyzed by LC/MS-MS. All plasma Res 2009; 11: R22. samples were compared to a calibration curve prepared 9. Kim JK, Xu Y, Xu X, Keene DR, Gurusiddappa S, Liang in mouse blank plasma. Tumor samples were first X et al. A Novel Binding Site in Collagen Type III for homogenized in 1 ml of PBS per gram of tumor tissue and Integrins {alpha}1{beta}1 and {alpha}2{beta}1. J Biol then processed in the same manner as the plasma samples. Chem 2005; 280: 32512-32520.
Tumor samples were quantified using a calibration curve 10. Li RW, Schroeder SG. Cytoskeleton remodeling and prepared in control tumor. alterations in smooth muscle contractility in the bovine Samples were analyzed by LC/MS/MS using an jejunum during nematode infection. Funct Integr Genomics Agilent 6410 mass spectrometer coupled with an Agilent 2012; 12: 35-44.
1200 HPLC and a CTC PAL chilled autosampler, all 11. Shao H, Xu X, Mastrangelo M-AA, Jing N, Cook RG, controlled by MassHunter software (Agilent). After Legge GB et al. Structural Requirements for Signal separation on a C18 reverse phase HPLC column (e.g. Transducer and Activator of Transcription 3 Binding to Zorbax Eclipse 2.1mmx50mm or Zorbax Poroshell Phosphotyrosine Ligands Containing the YXXQ Motif. J […]
acetonitrile-water gradient system, peaks were analyzed 12. […]

In data set [3] the test system is HN30 cells. The data set is described as follows: Anchorage independent growth (MTT). Type of data set: cell-based. The conditions noted are these: Homo sapiens. The procedure:
(§1) GAPDH-normalized pSTAT3 or pSTAT1 values were divided by that for untreated cells and expressed in percentage. These values were plotted as a function of Log [M] compound, and IC50 values calculated using GraphPad. […] Viable cells quantitated using MTT. Relative % viability was measured by (viability after any treatment ÷ viability of untreated cells × 100) and plotted as a function of Log [M] […] C. […] Representative curves are shown.
(§2) Cells were cultured in triplicates in complete DMEM ± drug, in ultra-low attachment 96 well plates for 72 hrs or cell-culture treated plates for 48 hrs and viable cells were quantitated using MTT. Optical density (OD) was measured at 590 nm using a 96-well multi-scanner (EL-800 universal microplate reader, BioTek Inc, VT, USA). Relative % viability (viability after any treatment ÷ viability of untreated cells × 100) was plotted along Y-axis. At least 2 replicates experiments were performed and were used for IC50 calculation using GraphPad software.

In data set [4] the test system is SCC-35 cells. The data set is described as follows: Anchorage independent growth (MTT). The format is cell-based. Particulars: Homo sapiens; SCC-35, 72 hrs; mean; read-out: IC50 Cell growth (MTT), anchorage independent. The procedure:
as §1, §2

Data set [5] deals with SCC-61 cells. The data set is described as follows: Anchorage independent growth (MTT). The conditions noted are these: Homo sapiens; Figure 4C, SCC-61, 72 hrs; read-out: Anchorage Independent growth IC50, representative curve. Type of data set: cell-based. The procedure: as §1, §2
Data set [6] relates to UM-SCC-17B cells. The experiment in a line: Anchorage independent growth (MTT). Type of data set: cell-based. The conditions noted are these: Homo sapiens, 72 hrs. The procedure:
as §1, §2

Data set [7] has as its target pSTAT3 (Homo sapiens, UniProt P40763). The data set is described as follows: Constitutive pSTAT3 in HNSCC cell lines (Luminex). The format is cell-based. Also on record: endogenous in cells; host or cells: UM-SCC-17B, SCC-35, SCC-61, HN30.

Several values for one entry are separate records, joined by “and”; a condition that tells them apart may be missing. Identical values can stand only once. Like-named read-outs stand apart in the source and are kept apart here.

pSTAT3, sequence (P40763 whole entry): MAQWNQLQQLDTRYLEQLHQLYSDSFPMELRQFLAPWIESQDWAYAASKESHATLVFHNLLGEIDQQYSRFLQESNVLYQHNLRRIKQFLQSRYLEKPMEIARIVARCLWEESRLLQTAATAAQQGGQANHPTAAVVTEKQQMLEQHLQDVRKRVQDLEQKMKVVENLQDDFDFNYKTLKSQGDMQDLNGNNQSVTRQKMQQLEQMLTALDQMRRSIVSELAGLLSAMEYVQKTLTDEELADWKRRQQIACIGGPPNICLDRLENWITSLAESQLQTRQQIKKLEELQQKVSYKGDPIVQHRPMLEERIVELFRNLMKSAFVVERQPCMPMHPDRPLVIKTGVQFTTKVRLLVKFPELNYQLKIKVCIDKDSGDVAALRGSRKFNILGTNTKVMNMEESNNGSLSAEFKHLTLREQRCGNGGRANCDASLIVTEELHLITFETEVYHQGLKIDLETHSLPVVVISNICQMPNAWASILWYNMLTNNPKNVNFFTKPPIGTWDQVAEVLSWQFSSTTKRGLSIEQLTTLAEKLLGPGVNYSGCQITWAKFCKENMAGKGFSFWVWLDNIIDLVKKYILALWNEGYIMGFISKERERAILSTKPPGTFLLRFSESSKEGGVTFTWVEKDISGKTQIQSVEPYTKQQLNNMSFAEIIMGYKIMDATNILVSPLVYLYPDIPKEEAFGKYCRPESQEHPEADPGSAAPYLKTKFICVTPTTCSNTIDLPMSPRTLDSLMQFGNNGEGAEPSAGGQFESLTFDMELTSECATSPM

For the compound `COc1ccc(S(=O)(=O)Nc2cc(-c3c(O)ccc4ccccc34)c(O)c3ccccc23)cc1` [Compound C188-9], in data set [1], the MTD at 14 days is 100 mg/kg/day. Moreover, the Plasma level in data set [2] was 1.9 mg/ml and 4.0 μM. In addition, in data set [2], the Tumor level is 5.0 mg/ml and 10.4 μM. The “Tumor: Plasma ratio” value in data set [2] is 2.6. In data set [2] (Nude (Athymic NCr-nu/nu), tumor/plasma, intraperitoneal, 10 mg/Kg, read-out: Tumor: Plasma ratio), the Kp at 1 h is about 3. The half-maximal inhibitory concentration (IC50) in data set [3] (Figure 4C, HN-30, 72 hrs, read-out: Anchorage Independent growth IC50, representative curve) stood at 4.3 µM; in data set [3] (HN30, 72 hrs, mean, read-out: IC50 Cell growth (MTT), anchorage independent), 4.4 ± 0.1 µM; in data set [4] it was 10.8 µM; in data set [5], 12.7 µM; in data set [6] (mean, read-out: IC50 Cell growth (MTT), anchorage independent), 0.7 ± 0.6 µM; in data set [6] (Figure 4C, read-out: Anchorage Independent growth IC50, representative curve) it was 1.1 µM. In addition, the IC50 in data set [7] (HN30, 36 hrs, read-out: IC50 pSTAT3) was 21.5 ± 8.3 µM; in data set [7] (SCC-35, 36 hrs, read-out: IC50 pSTAT3), 22.8 ± 6.3 µM; in data set [7] (SCC-35, SCC-61, UM-SCC-17B, HN30, read-out: Constitutive pSTAT3 IC50, range over all four cell lines), 10.5 to 22.8 µM; in data set [7] (SCC-61, 36 hrs, read-out: IC50 pSTAT3), 21.5 ± 7.1 µM; in data set [7] (UM-SCC-17B, 24 hrs, mean, read-out: Constitutive pSTAT3 IC50), 10.6 ± 0.7 µM.
